From US20220135940A1, “METHOD FOR PRODUCING KIDNEY STRUCTURE HAVING DENDRITICALLY BRANCHED COLLECTING DUCT FROM PLURIPOTENT STEM CELLS” (NATIONAL UNIVERSITY CORPORATION KUMAMOTO UNIVERSITY, priority 2018, published 2022)

Key:
mouse ES cells [1] = assay: Induction of CXCR4+/KIT+ WD progenitors from mouse ES cells, FACS at day 6.25; type: cell-based
Method: (§1) ES cells were differentiated in a serum-free medium as follows. The ES cells were dissociated with Accutase™ (ESGRO) and cultured in a serum-free mouse ES cell differentiation medium. The harvested cells were aggregated in a 96-well U-bottom low cell binding plate at 1,000 cells per aggregate to form embryonic bodies (EBs). After 48 hours (day 2), the EBs were dissociated with Accutase and re-aggregated in a serum-free differentiation medium supplemented with 10 ng/mL human activin A (R & D) (Procedure 1). After 24 hours (day 3), the medium was replaced with a medium containing 0.3 ng/mL human Bmp4 (R & D) and 10 μM CHIR 99021 (Procedure 2). After 36 hours (day 4.5), the medium was replaced with procedure 3 medium containing 0.1 μM retinoic acid, 100 ng/mL human Fgf9 and 10 μM SB431542 (Wako). On day 5.5 (24 hours later), the medium was replaced with a medium containing 0.1 μM retinoic acid, 100 ng/mL human Fgf9 and 5 μM CHIR99021 (“Procedure 4 medium”). The differentiation factors of the Hoxb7-GFP ES cell line are shown in the table below together with the differentiation factors of the Osr1-GFP ES cell line.
On day 6.25, the induced spheroids were harvested and dissociated by incubating in 0.25% trypsin/EDTA at 37° C. for 6 minutes. After blocking in normal mouse serum, cell surface marker (CXCR4/KIT) staining was carried out in a buffer containing 1% BSA, 1×HBSS and 0.035% NaHCO3. The FACS-sorted 3,000 Hoxb7-GFP+/CXCR4+/KIT+ cells were aggregated in a V-bottom 96-well low cell binding plate to form spheroids. Subsequently, these were cultured using the above E8.75 embryonic tissue culture conditions.
(§2) Cell aggregates induced from embryonic tissue or mouse ES cells/human iPS cells were dissociated and blocked with normal mouse serum and then cell surface marker staining was carried out in a buffer containing 1% BSA, 1×HBSS and 0.035% NaHCO3. Data analysis was performed with FlowJo software (Treestar).

[2] = test system: sorted Hoxb7-GFP positive E8.75 WD progenitors; assay: Maturation culture of sorted E8.75 WD progenitors, marker genes by qRT-PCR; type: cell-based, mouse; conditions: Wnt agonist 3 μM and Fgf9 100 ng/mL
Method: For embryonic tissue cultures at E8.75, the region caudal to the heart primordia of 12-15 somite-stage embryos were harvested and Hoxb7-GFP+/Flk1− cells were sorted by FACS. The sorted cells were aggregated in a V-bottom 96-well low cell binding plate at about 1,200 cells per aggregate. It was cultured for the first 24 hours using a medium containing 10 μM Y27632, 0.1 μM retinoic acid, 1 μM CHIR99021, 5 ng/mL human Fgf9 and 10% growth factor reduced Matrigel (“Procedure 5 medium”), then, the spheroids were transferred to “Procedure 6 medium” and “Procedure 7 medium,” and cultured for 24 hours each for differentiation.
(§3) Harvested spheroids or cells were homogenized, and total RNA was isolated using RNeasy Plus Micro Kit (Qiagen), and then a reverse-transcribed with random primers and Superscript III (Invitrogen). Quantitative PCR was carried out using Real-Time PCR system (Takara Bio) and Thunderbird SYBR qPCR Mix (Toyobo). With normalized by β-actin gene, relative mRNA expression levels were analyzed.
As the second procedure, the factors that mature the E8.75WD into the E9.5WD were found as follows. We investigated the factors that trigger maturation of the WD progenitors in the early stage, from embryonic E8.75 to E9.5 stage. At embryonic E8.75 to E9.5 stage, the Hoxb7-GFP positive WD progenitors are first clearly detectable in the anterior body trunk of the embryo (8-10 somite level). […]

[3] = test system: human iPS cell-derived CXCR4+/KIT+ WD progenitors; assay: Maturation culture of sorted human iPS cell-derived CXCR4+/KIT+ WD progenitors, mature WD marker genes; type: cell-based; conditions: continuous administration in addition to mouse WD maturation cocktails, 10% Matrigel
Method: On day 6.25, the induced spheroids were harvested and dissociated by incubating in 0.25% trypsin/EDTA for 6 minutes at 37° C. After blocking in normal mouse serum, cell surface marker (CXCR4/KIT) staining was carried out in a buffer containing 1% BSA, 1×HBSS and 0.035% NaHCO3. The FACS-sorted 5,000 of CXCR4+/KIT+ cells were seeded in a V-bottom 96-well low cell binding plate and precipitated by the centrifuge (210 G for 4 minutes). The supernatant was replaced with a medium containing 10 μM Y27632, 0.1 μM retinoic acid, 1 μM CHIR, 5 ng/mL human Fgf9, 100 ng/mL human Fgf1, 10 nM LDN193189 and 10% growth factor reduced Matrigel (“Procedure 5 medium”). On day 8.5, the spheroids were transferred to a medium containing 10 μM Y27632, 0.1 μM retinoic acid, 3 μM CHIR, 5 ng/mL human Fgf9, 1 ng/mL human GDNF, 100 ng/mL human Fgf1, 10 nM LDN193189 and 10% growth factor reduced Matrigel (“Procedure 6 medium”). […]
as §3, with “analyzed. […]” for “analyzed.”

mouse ES cells [4] = assay: AIM induction from mouse ES cells (procedure 3), AIM marker expression; type: cell-based; conditions: Fgf9 at high concentrations
Method: as §1, §3
Next, signaling for the AIM differentiation procedure was hypothesized, which is partially different from that for PIM, based on the gene expression profile minimally conserved, between anterior intermediate mesoderm (AIM) (Osr1+, Pax2+, Pax8+, Emx2+, Lhx1+, Gata3+) and posterior intermediate mesoderm (PIM) (Osr1+, Wtl+, Hoxll+) (Procedure 3 in FIG. 2).

human iPS cells [5] = assay: Induction of CXCR4+/KIT+ WD progenitors from human iPS cells, FACS at day 6.25; type: cell-based
Method: (§4) Cells were reaggregated at 10,000 cells per aggregate in a V-bottom 96-well low cell binding plate using a medium containing 10 μM Y27632 and 10 ng/mL human activin A and 1 ng/mL human Bmp4 (“Procedure 1 medium”), to form embryonic bodies (EBs). After 24 hours (day 1), the aggregates were transferred to a U-bottom 96-well low cell binding plate containing a medium containing 10 μM CHIR and 1 ng/mL human Bmp4 (“Procedure 2 medium”). After 36 hours (day 2.5), the medium was replaced with a medium containing 0.1 μM retinoic acid, 100 ng/mL human Fgf9, 100 nM LDN193189 and 100 μM SB431542 (“Procedure 3 medium”). On day 4.5, the medium was replaced with a medium containing 0.1 μM retinoic acid, 5 μM CHIR, 100 ng/mL human Fgf9 and 30 nM LDN193189 (“Procedure 4 medium”).
On day 6.25, the induced spheroids were harvested and dissociated by incubating in 0.25% trypsin/EDTA for 6 minutes at 37° C. After blocking in normal mouse serum, cell surface marker (CXCR4/KIT) staining was carried out in a buffer containing 1% BSA, 1×HBSS and 0.035% NaHCO3. The FACS-sorted 5,000 of CXCR4+/KIT+ cells were seeded in a V-bottom 96-well low cell binding plate and precipitated by the centrifuge (210 G for 4 minutes). The supernatant was replaced with a medium containing 10 μM Y27632, 0.1 μM retinoic acid, 1 μM CHIR, 5 ng/mL human Fgf9, 100 ng/mL human Fgf1, 10 nM LDN193189 and 10% growth factor reduced Matrigel (“Procedure 5 medium”). On day 8.5, the spheroids were transferred to a medium containing 10 μM Y27632, 0.1 μM retinoic acid, 3 μM CHIR, 5 ng/mL human Fgf9, 1 ng/mL human GDNF, 100 ng/mL human Fgf1, 10 nM LDN193189 and 10% growth factor reduced Matrigel (“Procedure 6 medium”). On day 10.5, the spheroids were transferred to a medium containing 10 μM Y27632, 0.1 μM retinoic acid, 3 μM CHIR, 2 ng/mL human GDNF, 100 ng/mL human Fgf1, 10 nM LDN193189 and 10% growth factor reduce Matrigel (“Procedure 7 medium”).
as §2
Next, the optimal time window for inducing anterior or posterior intermediate mesoderm from the nascent mesoderm was examined. Since the nascent mesoderm population is maintained by the high concentrations of Wnt agonists, the incubation period with Wnt agonists was varied and the subsequent differentiation was applied with conditions specific to the UB or metanephric nephron progenitor cell lineage. The induction efficiency of CXCR4+/KIT+ WD progenitor or ITGA8+/PDGFRA− nephron progenitor cell fraction was examined at day 6.25 or day 12, respectively. […]

human iPS cells [6] = assay: AIM induction from human iPS cells (procedure 3), AIM marker genes by quantitative analysis at day 4.5; type: cell-based; conditions: administered at procedure 3, day 4.5
Method: as §4, §3
The induction of WD from human iPS cells was performed as follows. […] This was confirmed by quantitative analysis at day 4.5 and day 6.25, respectively (FIG. 22).

[7] = test system: WD sorted from dissociated E9.5 mouse embryos; assay: Maturation culture of sorted E9.5 embryonic WD with growth factor combinations, marker genes by qRT-PCR; type: cell-based; conditions: E9.5 WD aggregates, Gdnf added to RA, Wnt agonist and Fgf9
Method: The posterior regions were harvested from the forelimbs of 22-26 somatic-stage embryos for embryonic tissue culture at […]. The harvested tissues were dissociated into single cells by incubating in DMEM/10% FBS containing 1 mg/mL Type XI collagenase for 6 minutes at 37° C., followed by treatment with DNase I and 0.25% trypsin at 37° C. for 6 minutes. After blocking in normal mouse serum, cell surface marker (Flk1) staining was carried out. Hoxb7-GFP+/Flk1− cells sorted by FACS were resuspended in a mouse ES cell differentiation media, and seeded in a V-bottom 96-well low cell binding plate (Sumitomo Bakelite, Co., Ltd., Cat #MS-9096V) so that there were about 1,600 cells per well. After the centrifuge (210 G, 4 min), the supernatant media was replaced with a medium containing 10 μM Y27632 (Wako), 0.1 μM retinoic acid, 3 μM CHIR99021, 5 ng/mL human Fgf9 (R & D), 1 ng/mL human GDNF (R & D) and 10% growth factor reduced Matrigel (BD) (“Procedure 6 medium”). […]
as §3, with “analyzed. […]” for “analyzed.”

Cc1c[nH]c(-c2cnc(NCCNc3ccc(C#N)cn3)nc2-c2ccc(Cl)cc2Cl)n1 [CHIR99021, reference compound]
induction of the CXCR4+/KIT+ population (mouse ES cells [1]; procedure 4, removal of the factor from RA, Wnt agonist and Fgf9): dramatically reduced the induction of the CXCR4+/KIT+ population
expression of maturation marker genes (Hnf1b, Wnt9b, Calb1, E-cadherin) [2]: worked inhibitory

Fgf1: fibroblast cell growth factor, human Fgf1
expression of the mature WD marker genes [3]: further enhanced the expression of the mature WD marker genes

CC1=C(/C=C/C(C)=C/C=C/C(C)=C/C(=O)O)C(C)(C)CCC1 [retinoic acid, all trans-retinoic acid, reference compound]
induction of AIM markers (mouse ES cells [4]): common inducer for both AIM and PIM induction

NC(=O)c1ccc(-c2nc(-c3ccc4c(c3)OCO4)c(-c3ccccn3)[nH]2)cc1 [SB431542, reference compound]
induction of AIM markers (mouse ES cells [4]): enhanced the AIM marker induction

c1ccc2c(-c3cnn4cc(-c5ccc(N6CCNCC6)cc5)cnc34)ccnc2c1 [LDN, LDN193189, reference compound]
expression of the mature WD marker genes [3]: further enhanced the expression of the mature WD marker genes
induction of CXCR4+/KIT+ WD progenitors (human iPS cells [5]; administered at procedure 3, day 6.25): greatly enhanced
AIM marker genes expression (human iPS cells [6]): greatly enhanced

B1: Gdnf: glial cell line-derived neurotrophic factor, recombinant human GDNF protein (protein, UniProt P39905 78-211, looked up)
Glial cell line-derived …: SPDKQMAVLPRRERNRQAAAANPENSRGKGRRGQRGKNRGCVLTAIHLNVTDLGLGYETKEELIFRYCSGSCDAAETTYDKILKNLSRNRRLVSDKVGQACCRPIAFDDDLSFLDDNLVYHILRKHSAKRCGCI
Wnt11 expression and bud-like structure formation [7]: successfully induced the Wnt11 expression and bud-like structure formation

B2: Bmp4: BMP signal pathway active substance, human Bmp4 (R & D) (protein, UniProt P12644 293-408, looked up)
Bone morphogenetic protein 4: SPKHHSQRARKKNKNCRRHSLYVDFSDVGWNDWIVAPPGYQAFYCHGDCPFPLADHLNSTNHAIVQTLVNSVNSSIPKACCVPTELSAISMLYLDEYDKVVLKNYQEMVVEGCGCR
UB induction versus MM induction, concentration dependence (mouse ES cells [1]; Bmp4 in procedure 2, activin A in procedure 1): maximized at higher Bmp4 concentrations compared to MM
induction of AIM markers (mouse ES cells [4]): inhibitory to the induction of AIM markers
concentration at which WD progenitor induction peaked (human iPS cells [5]; epiblast patterning stage (day 0 to day 1), combination of activin A and Bmp4): 1 ng/mL
concentration at which UB progenitor cells were most efficiently induced (human iPS cells [5]; mesoderm induction/patterning with CHIR, days 1 to 2.5): 1 ng/mL
